In the test the test system is NL-RLuc virus (recombinant NL4-3 HIV with Renilla Luciferase gene). Put plainly: Inhibition of HIV replication (NL-RLuc virus in MT-2 cells, luciferase readout). Particulars: MT2, 120 h. It counts as cell-based, Human immunodeficiency virus (HIV). The procedure, abridged: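 MT-2 cells infected with NL4-3-derived virus carrying Renilla luciferase in place of part of nef, grown 5 days with serial compound dilutions in RPMI 1640/10% FBS. Virus growth read as luciferase expression. EC50 from median effect equation, at least 2 experiments.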
For orientation: EC50 means the concentration that produces a half-maximal response. With `Cc1cccc(Cl)c1CN1CCc2cc(-c3c(CNCCCCc4ccccc4)nc(C)c([C@H](OC(C)(C)C)C(=O)O)c3N3CCC(C)(C)CC3)ccc2C1` [Example 155, (S)-2-(tert-Butoxy)-2-(5-(2-(2-chloro-6-methylbenzyl)-1,2,3,4-tetrahydroisoquinolin-6-yl)-4-(4,4-dimethylpiperidin-1-yl)-2-methyl-6-(((4-phenylbutyl)amino)methyl)pyridin-3-yl)acetic Acid], the EC50 stood at 55 nM.

`Cc1cccc(Cl)c1CN1CCc2cc(-c3c(CNCCCCCc4ccccc4)nc(C)c([C@H](OC(C)(C)C)C(=O)O)c3N3CCC(C)(C)CC3)ccc2C1` [Example 156, (S)-2-(tert-Butoxy)-2-(5-(2-(2-chloro-6-methylbenzyl)-1,2,3,4-tetrahydroisoquinolin-6-yl)-4-(4,4-dimethylpiperidin-1-yl)-2-methyl-6-(((5-phenylpentyl)amino)methyl)pyridin-3-yl)acetic Acid]: the EC50 was 65 nM. Take `Cc1cccc(Cl)c1CN1CCc2cc(-c3c(CNCCCCCCc4ccccc4)nc(C)c([C@H](OC(C)(C)C)C(=O)O)c3N3CCC(C)(C)CC3)ccc2C1` [Example 157, (S)-2-(tert-Butoxy)-2-(5-(2-(2-chloro-6-methylbenzyl)-1,2,3,4-tetrahydroisoquinolin-6-yl)-4-(4,4-dimethylpiperidin-1-yl)-2-methyl-6-(((6-phenylhexyl)amino)methyl)pyridin-3-yl)acetic Acid]: the EC50 is 340 nM. Turning to `Cc1cccc(Cl)c1CN1CCc2cc(-c3c(CF)nc(C)c([C@H](OC(C)(C)C)C(=O)O)c3N3CCC(C)(C)CC3)ccc2C1` [Example 158, (S)-2-(tert-Butoxy)-2-(5-(2-(2-chloro-6-methylbenzyl)-1,2,3,4-tetrahydroisoquinolin-6-yl)-4-(4,4-dimethylpiperidin-1-yl)-6-(fluoromethyl)-2-methylpyridin-3-yl)acetic Acid], the EC50 was determined as 5 nM.

With `Cc1nc(CN2CCC3(CCC3)CC2)c(-c2ccc3c(c2)CCN(c2ncnc4c2oc2ccccc24)C3)c(N2CCC(C)(C)CC2)c1[C@H](OC(C)(C)C)C(=O)O` [Example 159, (S)-2-(6-(7-Azaspiro[3.5]nonan-7-ylmethyl)-5-(2-(benzofuro[3,2-d]pyrimidin-4-yl)-1,2,3,4-tetrahydroisoquinolin-6-yl)-4-(4,4-dimethylpiperidin-1-yl)-2-methylpyridin-3-yl)-2-(tert-butoxy)acetic Acid], the EC50 turned out to be 1 nM. Under `Cc1nc(CN2CCC2)c(-c2ccc3c(c2)CCN(c2ncnc4c2oc2ccccc24)C3)c(N2CCC(C)(C)CC2)c1[C@H](OC(C)(C)C)C(=O)O` [Example 160, (S)-2-(6-(Azetidin-1-ylmethyl)-5-(2-(benzofuro[3,2-d]pyrimidin-4-yl)-1,2,3,4-tetrahydroisoquinolin-6-yl)-4-(4,4-dimethylpiperidin-1-yl)-2-methylpyridin-3-yl)-2-(tert-butoxy)acetic Acid] stands 20 nM; under `Cc1nc(CN2CCC(C)(C)CC2)c(-c2ccc3c(c2)CCN(c2ncnc4c2oc2ccccc24)C3)c(N2CCC(C)(C)CC2)c1[C@H](OC(C)(C)C)C(=O)O` [Example 161, (S)-2-(5-(2-(Benzofuro[3,2-d]pyrimidin-4-yl)-1,2,3,4-tetrahydroisoquinolin-6-yl)-4-(4,4-dimethylpiperidin-1-yl)-6-((4,4-dimethylpiperidin-1-yl)methyl)-2-methylpyridin-3-yl)-2-(tert-butoxy)acetic Acid], 1 nM; under `CC1(C)CCN(c2c(-c3ccc4c(c3)CCN(c3nccc(-c5cnccn5)n3)C4)c(N)nc(Cl)c2[C@H](OC(C)(C)C)C(=O)O)CC1` [Example 163, (S)-2-(6-Amino-2-chloro-4-(4,4-dimethylpiperidin-1-yl)-5-(2-(4-(pyrazin-2-yl)pyrimidin-2-yl)-1,2,3,4-tetrahydroisoquinolin-6-yl)pyridin-3-yl)-2-(tert-butoxy)acetic Acid], 3 nM. Take `Cc1nc(CO)c(-c2ccc3c(c2)CCN(c2nccc(-c4cccnc4)n2)C3)c(N2CCC(C)(C)CC2)c1[C@H](OC(C)(C)C)C(=O)O` [Example 164, (S)-2-(tert-Butoxy)-2-(4-(4,4-dimethylpiperidin-1-yl)-6-(hydroxymethyl)-2-methyl-5-(2-(4-(pyridin-3-yl)pyrimidin-2-yl)-1,2,3,4-tetrahydroisoquinolin-6-yl)pyridin-3-yl)acetic Acid]: the EC50 came to 2 nM. For the compound `Cc1nc(CO)c(-c2ccc3c(c2)CCN(c2nccc(-c4cnccn4)n2)C3)c(N2CCC(C)(C)CC2)c1[C@H](OC(C)(C)C)C(=O)O` [Example 165, (S)-2-(tert-Butoxy)-2-(4-(4,4-dimethylpiperidin-1-yl)-6-(hydroxymethyl)-2-methyl-5-(2-(4-(pyrazin-2-yl)pyrimidin-2-yl)-1,2,3,4-tetrahydroisoquinolin-6-yl)pyridin-3-yl)acetic Acid], the EC50 came to 2 nM. As for `Cc1nc(CN2CCC3(CCC3)CC2)c(-c2ccc3c(c2)CCN(c2nccc(-c4cnccn4)n2)C3)c(N2CCC(C)(C)CC2)c1[C@H](OC(C)(C)C)C(=O)O` [Example 166, (S)-2-(6-(7-Azaspiro[3.5]nonan-7-ylmethyl)-4-(4,4-dimethylpiperidin-1-yl)-2-methyl-5-(2-(4-(pyrazin-2-yl)pyrimidin-2-yl)-1,2,3,4-tetrahydroisoquinolin-6-yl)pyridin-3-yl)-2-(tert-butoxy)acetic Acid], the EC50 was 0.6 nM. Under `CC1(C)CCN(c2c(-c3ccc4c(c3)CCN(c3nccc(N5CCOCC5)n3)C4)c(N)nc(Cl)c2[C@H](OC(C)(C)C)C(=O)O)CC1` [Example 167, (S)-2-(6-Amino-2-chloro-4-(4,4-dimethylpiperidin-1-yl)-5-(2-(4-morpholinopyrimidin-2-yl)-1,2,3,4-tetrahydroisoquinolin-6-yl)pyridin-3-yl)-2-(tert-butoxy)acetic Acid] stands 4 nM.
